From patent US8058243B2, “Method for treating a brain cancer with ifenprodil” (HSC Research and Development Limited Partnership, priority 2006, dated 2011)
Counter-ions that a name gives are not always drawn. Like-named read-outs stand apart in the source and are kept apart here.

Tested on: murine neural precursor cells (neurosphere cultures)
Assay: HTS of LOPAC library against secondary neurosphere cultures, MTT proliferation assay at 3 μM, day 7 (z score, P value)
Assay type: cell-based, mouse
[1] = LOPAC primary screen, neurosphere MTT proliferation, 3 μM, day 7
[2] = yes/no: significantly inhibited neurosphere proliferation (P<0.01) in primary screen
[3] = LOPAC library screen, 3 μM, MTT, secondary neurosphere cultures, day 7
[4] = LOPAC screen, neurosphere MTT proliferation, 3 μM, day 7
[5] = yes/no: significantly inhibited neurosphere proliferation in primary screen
[6] = LOPAC library screen at 3 μM, secondary neurosphere cultures, MTT
[7] = yes = significantly inhibited neurosphere proliferation (P<0.01) in the primary screen
[8] = yes/no: significantly inhibited neurosphere proliferation (P<0.01) in the primary screen

For `CCCn1c(C)c(C(=O)c2cccc3ccccc23)c2ccccc21` [JWH-015], the “Z Score” value was 0.6223, the Z score [1] was 0.622 and the Activity [2] was “no”.
With `CC(=O)NBr` [N-Bromoacetamide] the “Z Score” value [3] was −1.362, the Z score [4] was −1.362 and the Activity [2] was “no”.
`FC(F)(F)c1ccccc1-n1ccnc1` [1-[2-(Trifluoromethyl)phenyl]imidazole] was tested, and the “Z Score” value (168 h, 3 µM) was −0.1576, the Z score (168 h, 3 µM) was −0.158 and the Activity [5] was “no”.
For `CC(C)[C@@H]1NC(=O)[C@H](CCCCN)NC(=O)[C@@H](Cc2c[nH]c3ccccc23)NC(=O)[C@H](Cc2ccc(O)cc2)NC(=O)[C@H](C)N(C)C(=O)[C@H](Cc2ccccc2)NC1=O` [Seglitide], the “Z Score” value [6] was −0.662, the Z score [1] was −0.662 and the Activity [5] was “no”.
With `COc1cc2c(cc1OC)-c1c/c(=N\c3c(C)cc(C)cc3C)n(C)c(=O)n1CC2` [Trequinsin hydrochloride] the “Z Score” value [6] was −0.9709, the Z score (primary LOPAC screen, 3 μM, MTT, neurosphere proliferation) was −0.971 and the Activity (yes/no: significantly inhibited neurosphere proliferation in the primary screen) was “no”.
With `CNc1ncnc2c1ncn2[C@@H]1O[C@H](CO)[C@@H](O)[C@H]1O` [N6-Methyladenosine] the “Z Score” value (168 h, 3 µM) was 0.7424, the Z score (168 h, 3 µM) was 0.742 and the Activity [7] was “no”.
For `CN(C)c1ccc(/C=C2\C(=O)Nc3ccccc32)cc1` [SU 4312], the “Z Score” value was 0.2692, the Z score [1] was 0.269 and the Activity [5] was “no”.
`C=C[C@H]1C[N@@]2CC[C@H]1C[C@H]2[C@H](O)c1ccnc2ccc(OC)cc12` [Quinine sulfate] was tested, and the “Z Score” value [6] was −0.2686, the Z score [1] was −0.269 and the Activity [5] was “no”.
In the case of `NC(Cc1cc(O)c(O)cc1O)C(=O)O` (racemic) [6-Hydroxy-DL-DOPA], the “Z Score” value is reported as 1.204, the Z score [1] is reported as 1.204 and the Activity [2] is reported as “no”.
In the case of `Cl.N=C(N)NC(=O)Cc1c(Cl)cccc1Cl` [Guranfacine hydrochloride], the Z score [1] is reported as 0.927 and the Activity [2] is reported as “no”.
For `COc1ccc2c(c1)[C@]13CCCC[C@@H]1[C@H](C2)N(C)CC3`, the “Z Score” value was −0.7932, the Z score [1] was −0.793 and the Activity [8] was “no”.
`NCCS` [Cysteamine hydrochloride] was tested, and the “Z Score” value [6] was −0.5989, the Z score [1] was −0.599 and the Activity [7] was “no”.
In the case of `COc1ccc(-n2nc(C(F)(F)F)cc2-c2ccc(Cl)cc2)cc1` [SC-560], the “Z Score” value is reported as 1.113 and the Z score [1] is reported as 1.113.
`C(=C\c1ccccc1)/CN1CCN(C(c2ccccc2)c2ccccc2)CC1` [Cinnarizine] was tested, and the “Z Score” value [3] was −1.375 and the Z score [4] was −1.375.
In the case of `CCc1cccc2c3c([nH]c12)C(CC)(CC(=O)O)OCC3` (stereo not drawn) [Etodolac], the “Z Score” value [6] is reported as −0.5582, the Z score [4] is reported as −0.558 and the Activity [2] is reported as “no”.
In the case of `CCN(CC)CCNC(=O)c1cc(Cl)c(N)cc1OC` [Metoclopramide hydrochloride], the “Z Score” value (168 h, 3 µM) is reported as −1.992, the Z score (168 h, 3 µM) is reported as −1.992 and the Activity [8] is reported as “no”.
With `COc1ccc(CNC(=O)/C=C/c2ccc3[nH]cc(CCN(C)C)c3c2)cc1` [GR 4661] the “Z Score” value was 0.1015, the Z score [1] was 0.102 and the Activity [7] was “no”.
In the case of `Cc1cccc(C)c1OCC(C)N.Cl` (stereo not drawn) [Mexiletene hydrochloride], the “Z Score” value is reported as −1.259, the Z score [1] is reported as −1.259 and the Activity [7] is reported as “no”.
With `C[N+](C)(C)CCCCCC[N+](C)(C)C.[Cl-].[Cl-]` [Hexamethonium dichloride] the “Z Score” value was −10.63, the Z score [1] was −10.634 and the Activity [8] was “yes”.
`COC(=O)C1=CCCN(C)C1` [Arecoline hydrobromide] was tested, and the Activity was “no”, the “Z Score” value was −0.111 and the Z score was −0.111.
In the case of `COc1ccc2c(c1)[C@@]13CCCC[C@H]1[C@@H](C2)NCC3.Cl` [3-Methoxy-morphanin hydrochloride], the “Z Score” value is reported as −7.714, the Z score [1] is reported as −7.714 and the Activity [8] is reported as “yes”.
For `Br.CN=c1nc(-c2ccccc2)n(-c2ccccc2)s1` [SCH-202676 hydrobromide], the “Z Score” value was 0.3599, the Z score [1] was 0.360 and the Activity [5] was “no”.
`C=C[C@H]1C[N@@]2CC[C@H]1C[C@@H]2[C@@H](O)c1ccnc2ccc(OC)cc12` [Quinidine sulfate] was tested, and the “Z Score” value [3] was −1.93, the Z score [1] was −1.930 and the Activity [5] was “no”.
